Source: ChEMBL document CHEMBL1201862, “PubChem BioAssay data set” (2004)
The source made the active and inactive calls.

Key:
[1] = target: T1, Long-chain-fatty-acid--AMP ligase FadD28 (Mycobacterium tuberculosis, UniProt P9WQ59); experiment: Fluorescence polarization aasay to screen for inhibitors that compete for the binding of FadD28 to a bisubstrate Measured in Biochemical System Using Plate Reader - 2147-01_Inhibitor_Dose_CherryPick_Activity.; assay type: functional, Mycobacterium tuberculosis H37Rv
T1 sequence (P9WQ59 whole entry): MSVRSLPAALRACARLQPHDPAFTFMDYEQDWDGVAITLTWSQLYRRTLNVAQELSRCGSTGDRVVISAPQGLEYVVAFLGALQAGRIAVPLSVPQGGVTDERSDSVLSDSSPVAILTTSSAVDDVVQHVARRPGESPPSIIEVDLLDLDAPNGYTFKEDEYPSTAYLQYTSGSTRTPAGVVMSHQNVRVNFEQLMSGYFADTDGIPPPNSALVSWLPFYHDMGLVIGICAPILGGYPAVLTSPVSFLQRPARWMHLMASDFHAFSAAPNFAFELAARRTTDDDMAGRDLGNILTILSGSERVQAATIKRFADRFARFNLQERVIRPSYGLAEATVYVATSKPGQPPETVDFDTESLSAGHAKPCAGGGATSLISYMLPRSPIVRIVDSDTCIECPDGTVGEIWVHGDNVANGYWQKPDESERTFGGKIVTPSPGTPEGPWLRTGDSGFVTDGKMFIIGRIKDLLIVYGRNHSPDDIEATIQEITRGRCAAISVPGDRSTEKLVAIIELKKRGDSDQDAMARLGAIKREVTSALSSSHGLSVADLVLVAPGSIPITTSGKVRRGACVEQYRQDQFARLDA

Genome polyprotein = Genome polyprotein (dengue virus type 2, UniProt P29990); experiment: flavivirus cap methylation enzyme inhibition – biochemical, confirmation dose response, primary screen (AID 588689); assay type: functional
Chain of Genome polyprotein (P29990 2492-3391 limits assumed): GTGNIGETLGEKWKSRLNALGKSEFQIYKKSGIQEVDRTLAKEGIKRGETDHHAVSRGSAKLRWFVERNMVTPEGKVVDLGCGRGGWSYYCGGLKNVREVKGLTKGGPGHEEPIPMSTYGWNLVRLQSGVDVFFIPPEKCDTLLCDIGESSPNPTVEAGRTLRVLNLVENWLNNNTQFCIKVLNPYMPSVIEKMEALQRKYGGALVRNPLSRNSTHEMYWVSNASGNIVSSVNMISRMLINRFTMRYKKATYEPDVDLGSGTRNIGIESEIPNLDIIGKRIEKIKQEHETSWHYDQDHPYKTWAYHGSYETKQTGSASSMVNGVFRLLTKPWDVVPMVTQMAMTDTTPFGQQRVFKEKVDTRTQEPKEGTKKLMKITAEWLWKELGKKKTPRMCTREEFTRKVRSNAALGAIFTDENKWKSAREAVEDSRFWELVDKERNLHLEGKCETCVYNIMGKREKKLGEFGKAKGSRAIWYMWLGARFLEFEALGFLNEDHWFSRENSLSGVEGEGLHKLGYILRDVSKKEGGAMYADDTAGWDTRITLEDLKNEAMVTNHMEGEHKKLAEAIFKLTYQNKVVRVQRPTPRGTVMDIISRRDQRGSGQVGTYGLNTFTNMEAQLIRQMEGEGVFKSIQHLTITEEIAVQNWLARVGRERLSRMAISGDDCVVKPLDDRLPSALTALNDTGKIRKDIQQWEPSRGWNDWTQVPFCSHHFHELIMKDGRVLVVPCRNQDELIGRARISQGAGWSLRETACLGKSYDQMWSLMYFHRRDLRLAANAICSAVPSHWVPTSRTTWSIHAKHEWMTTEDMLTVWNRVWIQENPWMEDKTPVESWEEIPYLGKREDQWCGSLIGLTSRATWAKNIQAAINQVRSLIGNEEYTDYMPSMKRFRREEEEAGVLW

[2] = target: T2, Histone-lysine N-methyltransferase NSD2 (Homo sapiens, UniProt O96028); assay type: biochemical
T2 sequence (O96028 whole entry): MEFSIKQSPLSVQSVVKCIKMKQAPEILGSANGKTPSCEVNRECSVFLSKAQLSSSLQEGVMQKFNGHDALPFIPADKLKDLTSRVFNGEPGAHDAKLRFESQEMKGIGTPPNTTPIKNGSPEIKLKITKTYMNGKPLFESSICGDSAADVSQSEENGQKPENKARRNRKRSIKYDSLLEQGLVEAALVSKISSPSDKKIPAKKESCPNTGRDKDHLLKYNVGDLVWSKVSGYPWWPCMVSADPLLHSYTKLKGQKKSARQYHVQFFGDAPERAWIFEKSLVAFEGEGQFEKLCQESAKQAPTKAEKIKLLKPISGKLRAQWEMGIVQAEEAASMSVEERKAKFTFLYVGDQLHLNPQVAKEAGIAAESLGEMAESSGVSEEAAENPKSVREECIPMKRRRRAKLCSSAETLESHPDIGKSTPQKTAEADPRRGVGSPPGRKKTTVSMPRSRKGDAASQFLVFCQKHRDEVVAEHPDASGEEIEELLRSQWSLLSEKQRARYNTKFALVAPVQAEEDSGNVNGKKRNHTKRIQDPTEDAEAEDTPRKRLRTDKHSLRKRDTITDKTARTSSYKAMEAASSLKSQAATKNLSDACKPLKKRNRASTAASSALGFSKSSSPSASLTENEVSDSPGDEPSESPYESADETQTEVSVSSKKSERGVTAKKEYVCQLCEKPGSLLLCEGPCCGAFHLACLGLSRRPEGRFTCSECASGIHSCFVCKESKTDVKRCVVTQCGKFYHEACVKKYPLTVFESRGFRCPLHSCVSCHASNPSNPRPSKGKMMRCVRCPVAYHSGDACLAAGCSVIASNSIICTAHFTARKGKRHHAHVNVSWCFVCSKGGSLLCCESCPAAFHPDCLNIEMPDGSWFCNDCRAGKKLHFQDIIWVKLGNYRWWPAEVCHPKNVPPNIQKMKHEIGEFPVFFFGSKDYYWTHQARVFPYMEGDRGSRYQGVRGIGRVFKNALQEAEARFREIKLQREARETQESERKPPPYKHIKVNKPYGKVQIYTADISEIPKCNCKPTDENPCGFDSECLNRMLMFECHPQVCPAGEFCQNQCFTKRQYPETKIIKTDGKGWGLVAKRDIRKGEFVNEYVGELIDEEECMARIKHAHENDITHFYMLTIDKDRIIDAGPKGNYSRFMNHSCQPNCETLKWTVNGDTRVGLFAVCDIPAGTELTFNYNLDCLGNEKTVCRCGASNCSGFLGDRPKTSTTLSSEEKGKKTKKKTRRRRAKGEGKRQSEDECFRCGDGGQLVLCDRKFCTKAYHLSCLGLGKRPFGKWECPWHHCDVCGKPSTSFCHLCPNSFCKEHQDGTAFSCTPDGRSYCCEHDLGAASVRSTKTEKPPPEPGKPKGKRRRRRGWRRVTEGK

[3] = target: Tyrosine-protein phosphatase non-receptor type 11 (Homo sapiens, UniProt Q06124); experiment: PTPN11 enzyme inhibitors – biochemical, selectivity assay for STEP inhibitor project, dose response (AID 602367); assay type: functional; details: read-out: IC50_Mean
[4] = target: Tyrosine-protein phosphatase non-receptor type 5 (Homo sapiens, UniProt P54829); experiment: PTPN5 enzyme inhibition – biochemical, fluorescence intensity, uHTS hits, confirmation (AID 602372); assay type: functional; details: read-out: IC50_Mean
Chain of Tyrosine-protein phosphatase non-receptor type 5 (P54829 whole entry): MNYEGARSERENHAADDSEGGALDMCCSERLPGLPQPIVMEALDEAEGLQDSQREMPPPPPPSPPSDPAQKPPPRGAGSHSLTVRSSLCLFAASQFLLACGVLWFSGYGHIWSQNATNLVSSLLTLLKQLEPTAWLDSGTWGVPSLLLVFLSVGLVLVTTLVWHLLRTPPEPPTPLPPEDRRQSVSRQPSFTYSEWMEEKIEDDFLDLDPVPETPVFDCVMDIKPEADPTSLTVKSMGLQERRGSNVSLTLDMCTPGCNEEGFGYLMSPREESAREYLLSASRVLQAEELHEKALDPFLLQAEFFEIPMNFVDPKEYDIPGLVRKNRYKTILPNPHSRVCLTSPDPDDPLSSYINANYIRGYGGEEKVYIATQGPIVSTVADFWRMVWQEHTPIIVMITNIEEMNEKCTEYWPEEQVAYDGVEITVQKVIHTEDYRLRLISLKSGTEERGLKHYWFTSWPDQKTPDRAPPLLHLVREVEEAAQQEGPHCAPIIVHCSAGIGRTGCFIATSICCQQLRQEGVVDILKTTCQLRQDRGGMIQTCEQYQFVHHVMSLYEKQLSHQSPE

[5] = target: Dual specificity protein phosphatase 3 (Homo sapiens, UniProt P51452); experiment: VHR phosphatase inhibition, dose response, selectivity assay for STEP inhibitor project, biochemical (AID 602374); assay type: functional; details: read-out: IC50_Mean
Chain of Dual specificity protein phosphatase 3 (P51452 whole entry): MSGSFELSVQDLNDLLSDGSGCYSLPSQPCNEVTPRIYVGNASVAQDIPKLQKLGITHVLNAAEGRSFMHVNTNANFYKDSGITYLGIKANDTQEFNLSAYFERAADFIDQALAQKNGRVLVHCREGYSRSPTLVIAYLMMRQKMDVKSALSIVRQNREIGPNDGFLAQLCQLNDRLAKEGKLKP

Beta-lactamase [6] = target: Beta-lactamase (Salmonella choleraesuis (strain SC-B67), UniProt Q5J463)
Chain of Beta-lactamase (Salmonella choleraesuis (strain SC-B67), UniProt Q5J463) (Q5J463 whole entry): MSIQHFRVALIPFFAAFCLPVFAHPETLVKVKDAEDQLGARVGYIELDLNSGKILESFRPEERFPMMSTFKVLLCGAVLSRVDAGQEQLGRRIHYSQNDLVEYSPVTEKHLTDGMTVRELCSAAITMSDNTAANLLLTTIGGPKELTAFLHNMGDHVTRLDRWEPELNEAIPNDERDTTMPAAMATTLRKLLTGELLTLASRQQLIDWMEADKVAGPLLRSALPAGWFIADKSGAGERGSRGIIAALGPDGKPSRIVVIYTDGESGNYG

Beta-lactamase [7] = target: Beta-lactamase (Pseudomonas aeruginosa, UniProt Q79MP6);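 also: biochemical dose-response test of metallo-beta-lactamase enzyme inhibition, read out by epi-absorbance; purified recombinant IMP-1 metallo-beta-lactamase with nitrocefin as substrate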
Chain of Beta-lactamase (Pseudomonas aeruginosa, UniProt Q79MP6) (Q79MP6 whole entry): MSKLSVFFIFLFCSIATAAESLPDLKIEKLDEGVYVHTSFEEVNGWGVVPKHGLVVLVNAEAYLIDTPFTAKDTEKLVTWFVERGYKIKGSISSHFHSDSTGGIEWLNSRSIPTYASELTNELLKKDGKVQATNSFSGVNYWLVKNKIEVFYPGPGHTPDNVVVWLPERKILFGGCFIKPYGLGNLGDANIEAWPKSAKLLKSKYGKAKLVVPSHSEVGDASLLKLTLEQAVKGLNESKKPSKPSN

[8] = target: Potassium voltage-gated channel subfamily KQT member 2 (Rattus norvegicus, UniProt O88943); experiment: blockers of KCNQ2 channel current – cell-based, automated electrophysiology, set II, rat KCNQ2, dose response (AID 588637); assay type: functional
Chain of Potassium voltage-gated channel subfamily KQT member 2 (O88943 whole entry): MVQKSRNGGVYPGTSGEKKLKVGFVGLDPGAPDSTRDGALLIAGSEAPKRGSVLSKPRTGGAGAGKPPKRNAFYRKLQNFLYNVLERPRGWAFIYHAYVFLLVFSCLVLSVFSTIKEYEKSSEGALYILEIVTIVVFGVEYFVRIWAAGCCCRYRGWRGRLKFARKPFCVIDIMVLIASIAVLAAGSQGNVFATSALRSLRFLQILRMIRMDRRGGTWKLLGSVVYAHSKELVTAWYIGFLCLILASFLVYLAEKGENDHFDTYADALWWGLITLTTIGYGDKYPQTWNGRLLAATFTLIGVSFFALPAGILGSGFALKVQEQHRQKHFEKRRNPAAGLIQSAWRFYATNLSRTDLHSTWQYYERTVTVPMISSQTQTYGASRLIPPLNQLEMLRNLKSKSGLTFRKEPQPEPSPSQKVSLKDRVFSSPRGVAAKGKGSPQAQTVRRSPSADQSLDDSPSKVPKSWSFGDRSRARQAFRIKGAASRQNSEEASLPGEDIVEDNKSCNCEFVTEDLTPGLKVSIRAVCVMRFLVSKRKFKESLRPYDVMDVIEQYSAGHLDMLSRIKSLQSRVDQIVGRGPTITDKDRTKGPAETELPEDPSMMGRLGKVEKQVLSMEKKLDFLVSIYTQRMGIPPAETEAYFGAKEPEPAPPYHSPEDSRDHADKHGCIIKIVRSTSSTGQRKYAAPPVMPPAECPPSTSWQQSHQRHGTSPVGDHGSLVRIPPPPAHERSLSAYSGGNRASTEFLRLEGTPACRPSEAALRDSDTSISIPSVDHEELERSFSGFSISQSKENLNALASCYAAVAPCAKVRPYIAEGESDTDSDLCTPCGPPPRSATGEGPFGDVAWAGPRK

[9] = target: DNA (cytosine-5)-methyltransferase 1 (Homo sapiens, UniProt P26358); experiment: inhibition of DNA methylation by DNMT1 – biochemical, fluorescent molecular beacon, confirmation (AID 602386); assay type: functional
Chain of DNA (cytosine-5)-methyltransferase 1 (P26358 whole entry): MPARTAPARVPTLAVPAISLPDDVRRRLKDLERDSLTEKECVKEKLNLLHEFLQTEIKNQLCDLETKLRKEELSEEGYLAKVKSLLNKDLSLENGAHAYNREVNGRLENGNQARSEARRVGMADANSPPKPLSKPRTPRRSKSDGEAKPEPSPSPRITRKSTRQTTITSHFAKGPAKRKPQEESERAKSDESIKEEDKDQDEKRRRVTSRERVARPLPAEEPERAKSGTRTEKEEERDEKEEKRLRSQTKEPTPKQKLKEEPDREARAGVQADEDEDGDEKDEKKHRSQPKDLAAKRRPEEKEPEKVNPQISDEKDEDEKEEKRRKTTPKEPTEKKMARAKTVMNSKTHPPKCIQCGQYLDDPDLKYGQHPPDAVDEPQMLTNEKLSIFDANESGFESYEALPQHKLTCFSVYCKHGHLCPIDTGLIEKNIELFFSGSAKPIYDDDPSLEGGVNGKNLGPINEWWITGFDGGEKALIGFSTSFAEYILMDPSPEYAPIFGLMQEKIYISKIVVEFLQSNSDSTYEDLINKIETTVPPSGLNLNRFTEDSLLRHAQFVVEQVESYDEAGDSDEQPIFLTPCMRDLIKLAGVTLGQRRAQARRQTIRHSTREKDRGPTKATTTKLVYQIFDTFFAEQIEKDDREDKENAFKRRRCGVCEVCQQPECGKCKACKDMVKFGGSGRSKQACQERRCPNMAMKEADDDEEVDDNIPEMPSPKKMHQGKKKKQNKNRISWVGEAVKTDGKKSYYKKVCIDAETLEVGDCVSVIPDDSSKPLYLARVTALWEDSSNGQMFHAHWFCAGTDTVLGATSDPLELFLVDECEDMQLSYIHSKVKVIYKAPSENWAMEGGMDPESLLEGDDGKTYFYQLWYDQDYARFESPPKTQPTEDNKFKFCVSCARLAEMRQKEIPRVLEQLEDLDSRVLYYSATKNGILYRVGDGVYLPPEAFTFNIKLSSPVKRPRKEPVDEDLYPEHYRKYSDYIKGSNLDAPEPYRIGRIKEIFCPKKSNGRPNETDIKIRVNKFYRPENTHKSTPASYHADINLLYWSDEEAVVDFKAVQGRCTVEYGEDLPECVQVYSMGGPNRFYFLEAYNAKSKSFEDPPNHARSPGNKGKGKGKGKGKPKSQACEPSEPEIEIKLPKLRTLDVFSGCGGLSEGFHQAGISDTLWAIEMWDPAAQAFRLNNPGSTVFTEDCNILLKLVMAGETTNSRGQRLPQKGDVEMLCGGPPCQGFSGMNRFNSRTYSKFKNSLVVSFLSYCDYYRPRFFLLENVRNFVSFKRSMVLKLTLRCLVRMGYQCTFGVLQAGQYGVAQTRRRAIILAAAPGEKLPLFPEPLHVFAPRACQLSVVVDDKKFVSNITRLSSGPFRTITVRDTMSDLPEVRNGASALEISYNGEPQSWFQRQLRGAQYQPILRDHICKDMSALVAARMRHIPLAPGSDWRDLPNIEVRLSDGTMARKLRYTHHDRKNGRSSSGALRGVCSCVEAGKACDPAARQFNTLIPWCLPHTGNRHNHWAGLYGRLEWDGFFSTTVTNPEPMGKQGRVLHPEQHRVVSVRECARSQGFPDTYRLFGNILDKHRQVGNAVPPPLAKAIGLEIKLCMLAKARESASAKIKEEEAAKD

[10] = target: T3, Small ubiquitin-related modifier 1 (Homo sapiens, UniProt P63165); experiment: SUMO1 protein interaction blockers, potency – biochemical, fluorescence polarization, uHTS hits, dose response (AID 624382); assay type: functional; details: read-out: IC50_Mean
T3 sequence (P63165 whole entry): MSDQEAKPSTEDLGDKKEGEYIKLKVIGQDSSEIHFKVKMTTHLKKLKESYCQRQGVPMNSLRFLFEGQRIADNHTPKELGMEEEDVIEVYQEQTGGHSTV

[11] = target: T4, Small ubiquitin-related modifier 2 (Homo sapiens, UniProt P61956); experiment: SUMO2 binding disruption by SUMO1 hits – biochemical, FRET, human SUMO2, uHTS hits, selectivity assay for SUMO1 interaction inhibitor project, dose response (AID 624384); assay type: functional; details: read-out: IC50_Mean
T4 sequence (P61956 whole entry): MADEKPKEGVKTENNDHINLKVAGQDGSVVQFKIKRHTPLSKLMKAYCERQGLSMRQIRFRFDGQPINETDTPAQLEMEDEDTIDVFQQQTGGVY

[12] = target: T3, Small ubiquitin-related modifier 1; experiment: SUMO1 protein-protein binding blockers, potency – biochemical, FRET, dose response (AID 624383); assay type: functional; details: read-out: IC50_Mean
[13] = target: T4, Small ubiquitin-related modifier 2; experiment: disruption of SUMO2 interaction with SIM peptide – biochemical, fluorescence polarization, uHTS hits, selectivity assay for SUMO1 interaction inhibitor project, dose response (AID 624385); assay type: functional; details: read-out: IC50_Mean

In the case of `CC(C(=O)Nc1ccc(O)cc1C(=O)O)N1C(=O)/C(=C\c2cccs2)SC1=S` (stereo not given), the AC50 [1] is reported as 49.3 µM (active), the IC50 (Genome polyprotein) is reported as 47.9 µM (active) and the AC50 [2] is reported as > 20 µM (inactive). The IC50 [3] was 1.5 µM (active), the IC50 [4] was 20.5 µM (inactive) and the IC50 [5] was 5.64 µM (active).

For `COc1ccc(-c2cc(=O)oc3c(C)c(OCC(=O)NCCCn4ccnc4)ccc23)cc1`, the IC50 (Beta-lactamase [6]) was > 59.6 µM (inactive) and the IC50 (Beta-lactamase [7]) was > 59.6 µM (inactive).

For `CCN(CC)S(=O)(=O)c1ccc(N2CCOCC2)c(NC(=O)COc2ccccc2)c1`, the IC50 [8] was 2.96 µM (active).

`CN(c1ccccc1)c1ccc(/C=C(/CCC(=O)O)c2nc3ccccc3s2)cc1[N+](=O)[O-]` was tested, and the IC50 [9] was 9.98 µM (active), the IC50 [10] was 11.1 µM (active) and the IC50 (Genome polyprotein) was 48.5 µM (active). For the same compound, the IC50 [11] was > 66 µM (inactive), the IC50 [12] was 51.8 µM (inactive) and the IC50 [13] was 6.2 µM (active).
